Patent publication US20100267561A1, “HERBICIDAL PYRIDAZINONE DERIVATIVES” (priority 2007, published 2010)

Tests used:
Type in all cases: in vivo
[1] = system: Russian thistle (Salsola iberica); assay: Test B pre-/postemergence plant response; conditions: Preemergence
In short: (§1)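 Visual scoring from 0 (no effect) to 100 (complete control) against untreated controls was done 13 to 15 days after greenhouse treatment. Chemicals were formulated in a surfactant-containing non-phytotoxic solvent and applied to soil preemergence or to 1- to 4-leaf (2-18 cm) plants postemergence.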

[2] = system: large crabgrass (Digitaria sanguinalis); assay: Test B pre-/postemergence plant response
In short: as §1

[3] = system: wheat (Triticum aestivum); assay: Test B pre-/postemergence plant response
In short: as §1

[4] = system: bermudagrass (Cynodon dactylon); assay: Test B pre-/postemergence plant response
In short: as §1

[5] = system: common ragweed (Ambrosia elation); assay: Test B pre-/postemergence plant response
In short: as §1

[6] = system: lambsquarters (Chenopodium album); assay: Test B pre-/postemergence plant response
In short: as §1

[7] = system: common (oilseed) sunflower (Helianthus annuus); assay: Test B pre-/postemergence plant response; conditions: Preemergence
In short: as §1

[8] = system: goosegrass (Eleusine indica); assay: Test B pre-/postemergence plant response
In short: as §1

kochia (Kochia scoparia) = assay: Test B pre-/postemergence plant response
In short: as §1

[9] = system: cocklebur (Xanthium strumarium); assay: Test B pre-/postemergence plant response
In short: as §1

soybean (Glycine max) = assay: Test B pre-/postemergence plant response
In short: as §1

[10] = system: surinam grass (Brachiaria decumbens); assay: Test B pre-/postemergence plant response
In short: as §1

corn (Zea mays) = assay: Test B pre-/postemergence plant response
In short: as §1

[11] = system: ducksalad (Heteranthera limosa); assay: Test B flooded paddy test plant response
In short: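 Compounds were added directly to paddy water over 2-leaf-stage plants in pots flooded 3 cm above soil, water depth maintained. Visual injury scored against controls after 13 to 15 days in greenhouse, 0 (none) to 100 (complete control); dash indicates no result.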

[12] = 31 g ai/ha, 0 to 100 scale, 0 no effect, 100 complete control
[13] = Postemergence, 31 g ai/ha, scale 0 to 100, 0 no effect, 100 complete control
[14] = Postemergence, 62 g ai/ha, scale 0 to 100
[15] = Postemergence, 125 g ai/ha, scale 0 to 100
[16] = Postemergence, 250 g ai/ha, scale 0 to 100
[17] = Preemergence, 31 g ai/ha, 0 to 100 scale, 0 no effect, 100 complete control
[18] = Preemergence, 62 g ai/ha, scale 0 to 100
[19] = Preemergence, 125 g ai/ha, scale 0 to 100
[20] = Preemergence, 250 g ai/ha, scale 0 to 100

Cc1nn(C)c(=O)c(-n2nc(-c3ccc(Cl)cc3)cc2C)c1O [Compound 15]
Plant response rating, Russian Thistle [1, 12]: 0
Plant response rating, Russian Thistle ([1]; 250 g ai/ha, scale 0 to 100): 80
Plant response rating, Crabgrass, Large [2, 13]: 90
Plant response rating, Crabgrass, Large [2, 14]: 90
Plant response rating, Crabgrass, Large [2, 15]: 98
Plant response rating, Crabgrass, Large [2, 16]: 100
Plant response rating, Crabgrass, Large [2, 17]: 85
Plant response rating, Crabgrass, Large [2, 18]: 100
Plant response rating, Crabgrass, Large [2, 19]: 100
Plant response rating, Crabgrass, Large [2, 20]: 100
Plant response rating, Wheat [3, 13]: 5
Plant response rating, Wheat [3, 14]: 60
Plant response rating, Wheat [3, 15]: 70
Plant response rating, Wheat [3, 16]: 85
Plant response rating, Wheat [3, 17]: 0
Plant response rating, Wheat [3, 18]: 60
Plant response rating, Wheat [3, 19]: 60
Plant response rating, Wheat [3, 20]: 80
Bermudagrass plant response rating ([4]; 250 g ai/ha, preemergence, 0-100 scale): 100
Plant response rating, Bermudagrass [4, 13]: 70
Plant response rating, Bermudagrass [4, 14]: 100
Plant response rating, Bermudagrass [4, 15]: 100
Plant response rating, Bermudagrass [4, 16]: 100
Plant response rating, Bermudagrass [4, 17]: 98
Plant response rating, Bermudagrass [4, 18]: 98
Plant response rating, Bermudagrass [4, 19]: 100
Plant response rating, Ragweed [5, 13]: 0
Plant response rating, Ragweed [5, 14]: 0
Plant response rating, Ragweed [5, 15]: 0
Plant response rating, Ragweed [5, 16]: 40
Plant response rating, Ragweed [5, 17]: 0
Plant response rating, Ragweed [5, 18]: 0
Plant response rating, Ragweed [5, 19]: 0
Plant response rating, Ragweed [5, 20]: 0
Plant response rating, Lambsquarters [6, 13]: 0
Plant response rating, Lambsquarters [6, 14]: 0
Plant response rating, Lambsquarters [6, 15]: 0
Plant response rating, Lambsquarters [6, 16]: 0
Plant response rating, Lambsquarters [6, 17]: 0
Plant response rating, Lambsquarters [6, 18]: 0
Plant response rating, Lambsquarters [6, 19]: 0
Plant response rating, Lambsquarters [6, 20]: 0
Plant response rating, Sunflower [7, 12]: 0
Plant response rating, Sunflower ([7]; 62 g ai/ha, scale 0 to 100): 0
Plant response rating, Sunflower ([7]; 250 g ai/ha, scale 0 to 100): 60
Plant response rating, Goosegrass [8, 13]: 45
Plant response rating, Goosegrass [8, 14]: 60
Plant response rating, Goosegrass [8, 15]: 90
Plant response rating, Goosegrass [8, 16]: 100
Plant response rating, Goosegrass [8, 17]: 0
Plant response rating, Goosegrass [8, 18]: 90
Plant response rating, Goosegrass [8, 19]: 90
Plant response rating, Goosegrass [8, 20]: 100
Plant response rating, Kochia (kochia (Kochia scoparia); [13]): 0
Plant response rating, Kochia (kochia (Kochia scoparia); [14]): 0
Plant response rating, Kochia (kochia (Kochia scoparia); [15]): 0
Plant response rating, Kochia (kochia (Kochia scoparia); [16]): 0
Plant response rating, Kochia (kochia (Kochia scoparia); [18]): 0
Plant response rating, Cocklebur [9, 13]: 0
Plant response rating, Cocklebur [9, 14]: 0
Plant response rating, Cocklebur [9, 15]: 0
Plant response rating, Cocklebur [9, 16]: 0
Plant response rating, Cocklebur [9, 17]: 0
Plant response rating, Cocklebur [9, 18]: 0
Plant response rating, Cocklebur [9, 19]: 0
Plant response rating, Cocklebur [9, 20]: 10
Plant response rating, Soybean (soybean (Glycine max); [13]): 0
Plant response rating, Soybean (soybean (Glycine max); [14]): 0
Plant response rating, Soybean (soybean (Glycine max); [15]): 0
Plant response rating, Soybean (soybean (Glycine max); [16]): 0
Plant response rating, Soybean (soybean (Glycine max); [17]): 0
Plant response rating, Soybean (soybean (Glycine max); [18]): 0
Plant response rating, Soybean (soybean (Glycine max); [20]): 30
Plant response rating, Surinam Grass [10, 13]: 100
Plant response rating, Surinam Grass [10, 14]: 100
Plant response rating, Surinam Grass [10, 15]: 100
Plant response rating, Surinam Grass [10, 16]: 100
Plant response rating, Surinam Grass [10, 17]: 100
Plant response rating, Surinam Grass [10, 18]: 100
Plant response rating, Surinam Grass [10, 19]: 100
Plant response rating, Surinam Grass [10, 20]: 100
Plant response rating, Corn (corn (Zea mays); [13]): 90
Plant response rating, Corn (corn (Zea mays); [14]): 95
Plant response rating, Corn (corn (Zea mays); [15]): 95
Plant response rating, Corn (corn (Zea mays); [17]): 50
Plant response rating, Corn (corn (Zea mays); [18]): 98
Plant response rating, Corn (corn (Zea mays); [19]): 100
Plant response rating, Corn (corn (Zea mays); [20]): 100
Plant response rating, Ducksalad ([11]; Flood (flooded paddy test), 62 g ai/ha, scale 0 to 100, 0 no effect, 100 complete control): 0
Plant response rating, Ducksalad ([11]; Flood (flooded paddy test), 125 g ai/ha, scale 0 to 100, 0 no effect, 100 complete control): 80
Plant response rating, Ducksalad ([11]; Flood (flooded paddy test), 250 g ai/ha, scale 0 to 100, 0 no effect, 100 complete control): 100
Plant response rating, Ducksalad ([11]; Flood, 31 g ai/ha, scale 0 to 100): 0
